Experiment [1] has as its target Neuronal acetylcholine receptor subunit alpha-7 (Rattus norvegicus, UniProt Q05941). Description: Displacement of [125I]alpha-BTX from alpha-7 nAChR in rat hippocampus membrane. In kind it is cell membranes. On the technique in general: Loss of bound radioactivity is the signal in a displacement assay; it reports binding, not function.
Experiment [2] deals with Cytochrome P450 2D6 (Homo sapiens, UniProt P10635). Briefly: Inhibition of CYP2D6. In kind it is ADME.
Experiment [3] concerns the target Neuronal acetylcholine receptor subunit alpha-7 (Homo sapiens) (UniProt P36544). Briefly: Activity at alpha-7 nAChR assessed as stimulation of relative inward current in cultured hippocampal neurons relative to choline. In kind it is functional, tissue-based. To be noted: Hippocampus, filed as agonist.

Here are results for twelve compounds from ChEMBL document CHEMBL1138068 (J Med Chem, 2006).

Chain of Neuronal acetylcholine receptor subunit alpha-7 (Q05941 whole entry): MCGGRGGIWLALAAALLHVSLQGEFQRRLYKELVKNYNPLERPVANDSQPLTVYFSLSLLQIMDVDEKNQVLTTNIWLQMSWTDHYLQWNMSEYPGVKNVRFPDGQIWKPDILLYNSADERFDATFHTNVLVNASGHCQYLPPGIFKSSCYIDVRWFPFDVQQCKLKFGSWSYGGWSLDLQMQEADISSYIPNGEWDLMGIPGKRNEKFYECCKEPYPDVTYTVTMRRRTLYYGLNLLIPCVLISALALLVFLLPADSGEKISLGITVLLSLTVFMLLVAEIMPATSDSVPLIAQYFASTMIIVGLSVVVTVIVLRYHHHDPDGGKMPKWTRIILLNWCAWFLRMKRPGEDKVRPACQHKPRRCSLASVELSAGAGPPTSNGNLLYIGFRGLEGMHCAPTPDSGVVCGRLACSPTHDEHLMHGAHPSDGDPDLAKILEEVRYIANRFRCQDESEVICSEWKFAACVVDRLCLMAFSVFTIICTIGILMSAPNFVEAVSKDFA
Chain of Cytochrome P450 2D6 (P10635 whole entry): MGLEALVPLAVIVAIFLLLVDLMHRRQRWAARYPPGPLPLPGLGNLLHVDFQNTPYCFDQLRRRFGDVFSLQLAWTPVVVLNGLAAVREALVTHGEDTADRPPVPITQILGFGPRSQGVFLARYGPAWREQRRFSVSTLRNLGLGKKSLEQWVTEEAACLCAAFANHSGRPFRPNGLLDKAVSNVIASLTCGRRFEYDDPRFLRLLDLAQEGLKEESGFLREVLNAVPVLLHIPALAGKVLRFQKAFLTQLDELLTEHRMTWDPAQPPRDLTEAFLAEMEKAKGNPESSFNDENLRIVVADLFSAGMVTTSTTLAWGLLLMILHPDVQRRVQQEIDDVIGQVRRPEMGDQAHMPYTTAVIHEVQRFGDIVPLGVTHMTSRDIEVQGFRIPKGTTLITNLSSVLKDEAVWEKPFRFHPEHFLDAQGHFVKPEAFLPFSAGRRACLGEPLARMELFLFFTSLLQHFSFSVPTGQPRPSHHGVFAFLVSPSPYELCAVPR
Chain of Neuronal acetylcholine receptor subunit alpha-7 (Homo sapiens) (P36544 whole entry): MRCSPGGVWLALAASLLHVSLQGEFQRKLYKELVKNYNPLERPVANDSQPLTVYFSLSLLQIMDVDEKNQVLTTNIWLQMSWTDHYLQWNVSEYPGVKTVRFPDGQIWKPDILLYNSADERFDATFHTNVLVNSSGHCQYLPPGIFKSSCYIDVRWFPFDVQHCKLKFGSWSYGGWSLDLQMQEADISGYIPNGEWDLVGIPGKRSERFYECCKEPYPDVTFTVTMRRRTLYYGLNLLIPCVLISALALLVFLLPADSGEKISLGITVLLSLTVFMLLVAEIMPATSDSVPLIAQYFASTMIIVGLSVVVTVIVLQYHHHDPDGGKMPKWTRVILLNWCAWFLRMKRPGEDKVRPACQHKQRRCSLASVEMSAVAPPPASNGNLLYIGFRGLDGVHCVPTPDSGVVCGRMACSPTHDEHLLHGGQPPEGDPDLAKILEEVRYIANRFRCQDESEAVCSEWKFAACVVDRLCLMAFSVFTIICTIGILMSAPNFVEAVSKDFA

The Ki is the equilibrium dissociation constant of an inhibitor or competing ligand from its target. Low values mean a stronger hold on the target, high ones a looser hold on the target. Compound `Cc1oc2ccc(N3C[C@@]4(CN5CCC4CC5)OC3=O)cc2c1Br` yielded a Ki in experiment [1] of 11 nM.
For orientation: IC50 means the concentration at which inhibition is half-maximal. Read a low IC50 as greater potency. As for `O=C1O[C@]2(CN3CCC2CC3)CN1c1ccc2occc2c1`, in experiment [1], the Ki came to 19 nM. Also, the IC50 in experiment [2] was over 30000 nM. Moreover, the Activity result in experiment [3] is “Agonist”.
`CCc1cc2cc(N3C[C@@]4(CN5CCC4CC5)OC3=O)ccc2s1` yielded a Ki in experiment [1] of 135 nM. Besides, the IC50 in experiment [2] is over 30000 nM.
`Cc1cc2cc(N3C[C@@]4(CN5CCC4CC5)OC3=O)ccc2o1` registered an inhibition constant (Ki) in experiment [1] of 38 nM. Further, the 50% inhibitory concentration (IC50) in experiment [2] was over 30000 nM.
Consider `Cc1nc2cc(N3C[C@@]4(CN5CCC4CC5)OC3=O)ccc2s1`, for which the inhibition constant (Ki) in experiment [1] was found to be 60 nM. This lies in the double-digit nanomolar range.
Consider `O=C1O[C@]2(CN3CCC2CC3)CN1c1ccc2sc(Cl)cc2c1`, for which the inhibition constant (Ki) in experiment [1] was determined as 34 nM. This compound displayed an IC50 in experiment [2] of over 30000 nM.
Take `O=C1O[C@@]2(CN3CCC2CC3)CN1c1ccc2c(c1)CCC2`: the Ki in experiment [1] stood at 200 nM.
In the case of `O=C1NCC2(CN3CCC2CC3)O1` (single isomer, unassigned), the Activity result in experiment [3] is “Agonist”.
For `O=C1O[C@@]2(CN3CCC2CC3)CN1c1ccc2occ(Br)c2c1`, the inhibition constant (Ki) in experiment [1] stood at 4 nM. Further, the half-inhibitory concentration (IC50) in experiment [2] is over 30000 nM.
As to `O=C1O[C@]2(CN3CCC2CC3)CN1c1ccc2c(c1)OCC2`, in experiment [1], the inhibition constant (Ki) was 410 nM.
The same measure, in the same setting: next, `O=C1O[C@]2(CN3CCC2CC3)CN1c1ccc2ccoc2c1`: 50 nM.
For `Cn1c(=O)sc2cc(N3CC4(CN5CCC4CC5)OC3=O)ccc21` (single isomer, unassigned), the half-maximal inhibitory concentration (IC50) in experiment [1] is over 1000 nM.
